In patent US20100098640A1, “Multidentate Pyrone-Derived Chelators for Medicinal Imaging and Chelation” (priority 2005, published 2010):

Key:
Type in all cases: physicochemical
[1] = Protonation constants of free ligands by potentiometric titration; conditions: 1.0 M aqueous NaCl, ligand ~0.5 mM
Protocol: Thermodynamic evaluation of the new ligands can include potentiometric determination of the ligand protonation constants and spectrophotometric evaluation of the Gd^3+, Ca^2+, and Zn^2+ stability constants. In order to determine the stability of these ligands with Gd^3+, first the protonation constants for each ligand is determined. The protonation constants can be measured by potentiometric titration and the assignment of these protonations can be made using ^1H NMR titrations. ^1H NMR titration experiments use changes in the chemical shift of the non-exchangeable protons on the ligand to assign the sites of protonation; data is plotted as chemical shift vs. pD.
The experimental protocols and equipment used have been previously described (Johnson, A. R., et al. Inorg. Chem. 2000, 39, 2652). To determine the protonation constants of the free ligands, approximately 15 mg of ligand was dissolved in 50 mL of a 1.0 M aqueous solution of NaCl in a titration vessel (ligand concentration ˜0.5 mM). Protonation constants of TRENMAM and TREN-Me-MAM were examined by potentiometric (pH vs total proton concentration) titrations by using Hyperquad (Gans, P. et al. Talanta 1996, 43, 1739) for data analysis. Each protonation constant determination is the result from at least three experiments (where each experiment consists of two titrations, the first one titrated with acid, followed by a reverse titration with base). The equilibration time between additions of titrant was 90 seconds.

[2] = Competition batch titration with DTPA (pGd); conditions: pH 7.4, 24 h equilibration, three titrations
Source text: The affinity of these ligands for protons and metal ions in solution is described in terms of formation constants. The protonation of a metal complex can be subsequently calculated from the appropriate cumulative constants. The stability of metal complexes can be discussed in terms of the pM value (in this case pGd) which is expressed as
Although a pM value can be calculated under various conditions (e.g. different pH's or relative concentrations), in the context of a biological scenario the following parameters are commonly used for comparison: [M]=1 μM, [L]=10 μM, and pH=7.4.
The stability of the heteropodate ligands with Gd^3+, Ca^2+, and Zn^2+ can be measured by spectrophotometric titration. The strong UV absorptions (π→π*) of the pyrone rings of the ligands can be monitored in order to follow the complexation reaction (FIG. 2). The titration can be performed in a batch mode, collecting between 20-40 spectra, monitored between 200-500 nm for each titration of a ligand in the presence of an equal molar amount of Gd^3+, Ca^2+ or Zn^2+. […]

Aqueous solubility = assay: Aqueous solubility

Compound | log K1 (protonation constant) [1] | log K2 (protonation constant) [1] | log K3 (protonation constant) [1] | log K4 (protonation constant) [1] | pGd [2] | water solubility compared to the TREN-Me-MAM ligand (Aqueous solubility)
O=C(NCCN(CCNC(=O)c1occc(=O)c1O)CCNC(=O)c1occc(=O)c1O)c1occc(=O)c1O [TRENMAM] | 7.33(1) | 5.76(1) | 4.97(2) | 3.84(2) | 19.27±0.08 | improved water solubility
tris(aminoethyl)amine)methylmaltolamide [TREN-Me-MAM] | 7.91(1) | 6.30(2) | 5.48(2) | 4.46(2) | 19.03±0.04 | –
